From US20160220569A1, “CDK4/6 Inhibitor Dosage Formulations For The Protection Of Hematopoietic Stem And Progenitor Cells During Chemotherapy” (G1 Therapeutics, Inc., priority 2015, published 2016)
Read-outs that look alike come from different tables or passages of the source.

Assay: Single escalating dose IV infusion pharmacokinetics in healthy volunteers (noncompartmental)
Assay type: in vivo, human
Conditions: human, plasma; for concentration at 24.5 h: read-out: concentration at 24.5 hours after the start of infusion; for concentration at 12.5 h: Time 12.50 h
Method: Forty-five subjects have enrolled in the study.
Analysis of plasma concentration versus time data for calculation of standard pharmacokinetic (PK) parameters following intravenous infusion administration was conducted using Phoenix WinNonlin version 6.3 using a nominal infusion duration and scheduled blood sampling times. Random subject numbers were assigned by the bioanalytical laboratory to retain the blind.
(§1) Analysis of plasma concentration versus time data for calculation of standard pharmacokinetic (PK) parameters following intravenous infusion administration was conducted using Phoenix WinNonlin version 6.3 using a nominal infusion duration and scheduled blood sampling times.
as §1

[1] = both sexes, iv, 48 mg/m2, Cohort 4, 48 mg/m^2 IV, r6-8=Subjects 1-3,r10=Mean,r12=Min,r13=Median,r14=Max,r16=Geometric Mean
[2] = both sexes, iv, 48 mg/m^2, Compound 1 Concentration, Cohort 4, 48 mg/m^2 IV, r7-9=Subjects 1-3,r11=Mean,r13=Min,r14=Median,r15=Max,r17=Geometric Mean
[3] = both sexes, iv, 96 mg/m^2, Cohort 5, 96 mg/m^2, 30-minute IV infusion, noncompartmental, subjects 1-6, Mean, Min, Median, Max, Geometric Mean
[4] = both sexes, iv, 96 mg/m^2, Compound 1 Concentration, Cohort 5, 96 mg/m^2 IV, r7-12=Subjects 1-6,r14=Mean,r16=Min,r17=Median,r18=Max,r20=Geometric Mean

CN1CCN(c2ccc(Nc3ncc4cc5n(c4n3)C3(CCCCC3)CNC5=O)nc2)CC1 [Compound 1, 2′-((5-(4-methylpiperazin-1-yl)pyridin-2-yl)amino)-7′,8′-dihydro-6′H-spiro[cyclohexane-1,9′-pyrazino[1′,2′:1,5]pyrrolo[2,3-d]pyrimidin]-6′-one]
Cmax (both sexes, iv, 48 mg/m2, Cohort 4, 48 mg/m^2 IV, mean, read-out: Cmax averaged): 224 ng/mL | Tmax (both sexes, iv, 48 mg/m2, Cohort 4, 48 mg/m^2 IV, median, read-out: median Tmax): 0.5 h | AUC(0-t) [1]: 453 ng·h/mL | MRT inf [1]: 8.08 h | AUC(0-inf) (both sexes, iv, 48 mg/m2, Cohort 4, 48 mg/m^2 IV, r6-8=Subjects 1-3,r10=Mean,r12=Min,r13=Median,r14=Max,r16=Geometric Mean, read-out: AUCinf): 499 ng·h/mL | Cmax (both sexes, iv, 48 mg/m2, Cohort 4, 48 mg/m^2 IV, r6-8=Subjects 1-3,r10=Mean,r12=Min,r13=Median,r14=Max,r16=Geometric Mean, read-out: Cmax): 224 ng/mL | Tmax (both sexes, iv, 48 mg/m2, Cohort 4, 48 mg/m^2 IV, r6-8=Subjects 1-3,r10=Mean,r12=Min,r13=Median,r14=Max,r16=Geometric Mean, read-out: Tmax): 0.417 h | half-life (both sexes, iv, 48 mg/m2, Cohort 4, 48 mg/m^2 IV, range over subjects, read-out: Half-lives range): 7.24 to 10.9 h | concentration at 72 h (both sexes, iv, 48 mg/m^2, Cohort 4, 48 mg/m^2 IV, one subject measurable, read-out: concentration at 72 hours after the EOI): 0.76 ng/mL | concentration at 24.5 h (both sexes, iv, 48 mg/m^2, Cohort 4, 48 mg/m^2 IV, range over 3 subjects): 2.08 to 4.66 ng/mL | concentration at 0.25 h [2]: 192 ng/mL | concentration at 0.75 h (both sexes, iv, 48 mg/m^2, Compound 1 Concentration, Cohort 4, 48 mg/m^2 IV, Time 0.75 h, r7-9=Subjects 1-3,r11=Mean,r13=Min,r14=Median,r15=Max,r17=Geometric Mean): 107 ng/mL | concentration at 1 h (both sexes, iv, 48 mg/m^2, Compound 1 Concentration, Cohort 4, 48 mg/m^2 IV, Time 1.00 h, r7-9=Subjects 1-3,r11=Mean,r13=Min,r14=Median,r15=Max,r17=Geometric Mean): 81.9 ng/mL | concentration at 2.5 h (both sexes, iv, 48 mg/m^2, Compound 1 Concentration, Cohort 4, 48 mg/m^2 IV, Time 2.50 h, r7-9=Subjects 1-3,r11=Mean,r13=Min,r14=Median,r15=Max,r17=Geometric Mean): 34.2 ng/mL | concentration at 3.5 h (both sexes, iv, 48 mg/m^2, Compound 1 Concentration, Cohort 4, 48 mg/m^2 IV, Time 3.50 h, r7-9=Subjects 1-3,r11=Mean,r13=Min,r14=Median,r15=Max,r17=Geometric Mean): 27.6 ng/mL | concentration at 6.5 h (both sexes, iv, 48 mg/m^2, Compound 1 Concentration, Cohort 4, 48 mg/m^2 IV, Time 6.50 h, r7-9=Subjects 1-3,r11=Mean,r13=Min,r14=Median,r15=Max,r17=Geometric Mean): 17 ng/mL | concentration at 8.5 h (both sexes, iv, 48 mg/m^2, Compound 1 Concentration, Cohort 4, 48 mg/m^2 IV, Time 8.50 h, r7-9=Subjects 1-3,r11=Mean,r13=Min,r14=Median,r15=Max,r17=Geometric Mean): 12.1 ng/mL | concentration at 12.5 h [2]: 8.36 ng/mL | AUC(0-inf) (both sexes, iv, 96 mg/m2, Cohort 5, 96 mg/m^2 IV, mean, read-out: AUCinf averaged): 1320 ng·h/mL | Cmax (both sexes, iv, 96 mg/m2, Cohort 5, 96 mg/m^2 IV, mean, read-out: Cmax averaged): 900 ng/mL | half-life (both sexes, iv, 96 mg/m2, Cohort 5, 96 mg/m^2 IV, mean, read-out: Half-lives averaged (converted)): 8.62 h | Tmax (both sexes, iv, 96 mg/m2, Cohort 5, 96 mg/m^2 IV, median, read-out: median Tmax): 0.375 h | half-life (both sexes, iv, 96 mg/m2, Cohort 5, 96 mg/m^2 IV, range over subjects, read-out: Half-lives range): 6.97 to 10.9 h | AUC(0-t) [3]: 1530 ng·h/mL | MRT inf [3]: 4.36 h | AUC(0-inf) (both sexes, iv, 96 mg/m^2, Cohort 5, 96 mg/m^2, 30-minute IV infusion, noncompartmental, subjects 1-6, Mean, Min, Median, Max, Geometric Mean, read-out: AUCinf): 1590 ng·h/mL | Cmax (both sexes, iv, 96 mg/m^2, Cohort 5, 96 mg/m^2, 30-minute IV infusion, noncompartmental, subjects 1-6, Mean, Min, Median, Max, Geometric Mean, read-out: Cmax): 949 ng/mL | Tmax (both sexes, iv, 96 mg/m^2, Cohort 5, 96 mg/m^2, 30-minute IV infusion, noncompartmental, subjects 1-6, Mean, Min, Median, Max, Geometric Mean, read-out: Tmax): 0.5 h | half-life (both sexes, iv, 96 mg/m^2, Cohort 5, 96 mg/m^2, 30-minute IV infusion, noncompartmental, subjects 1-6, Mean, Min, Median, Max, Geometric Mean, read-out: t½ (converted)): 7.11 h | concentration at 24.5 h (both sexes, iv, 96 mg/m^2, Cohort 5, 96 mg/m^2 IV, range over subjects): 3.96 to 9.59 ng/mL | concentration at 0.25 h [4]: 843 ng/mL | concentration at 0.5 h (both sexes, iv, 96 mg/m^2, Compound 1 Concentration, Cohort 5, 96 mg/m^2 IV, Time 0.50 h, r7-12=Subjects 1-6,r14=Mean,r16=Min,r17=Median,r18=Max,r20=Geometric Mean): 992 ng/mL | concentration at 12.5 h [4]: 11.9 ng/mL | Tmax (both, intravenous, […]2, Cohort 6, […]^2, 0-24.5 hr data, noncompartmental, subjects 1-6, Mean, Min, Median, Max, Geometric Mean, read-out: Tmax): 0.5 h | Tmax (both, intravenous, […]2, Cohort 6, […]^2, 0-[…] data, noncompartmental, subjects 1-6, Mean, Min, Median, Max, Geometric Mean, read-out: Tmax): 0.5 h | half-life (both, intravenous, […]2, Cohort 7, […]^2, N = 12, Geo. Mean, read-out: t1/2 (converted)): 14.5 h | Tmax (both, intravenous, […]2, Cohort 7, […]^2, N = 12, Geo. Mean, read-out: tmax): 0.36 h | half-life (both, intravenous, […]2, Cohort 7, […]^2, N = 12, min-max, read-out: t1/2 (converted)): 11.9 to 17.3 h | Tmax (both, intravenous, […]2, Cohort 7, […]^2, N = 12, min-max, read-out: tmax): 0.25 to 0.48 h | half-life (both, intravenous, […]^2, Cohort 6 + 7, […]^2, N = 18, Geo. Mean, read-out: t1/2 (converted)): 14.5 h | Tmax (both, intravenous, […]^2, Cohort 6 + 7, […]^2, N = 18, Geo. Mean, read-out: tmax): 0.37 h | half-life (both, intravenous, […]^2, Cohort 6 + 7, […]^2, N = 18, min-max, read-out: t1/2 (converted)): 11.9 to 17.3 h | Tmax (both, intravenous, […]^2, Cohort 6 + 7, […]^2, N = 18, min-max, read-out: tmax): 0.25 to 0.48 h | half-life (both, iv, […]2, Cohort 6, […]^2 IV, 0-24.5 hr data, mean, read-out: Half-lives averaged (converted)): 7.87 h | half-life (both, iv, […]2, Cohort 6, […]^2 IV, 0-24.5 hr data, range over subjects, read-out: Half-lives range): 5.78 to 8.79 h | half-life (both, iv, […]2, Cohort 6, […]^2 IV, 0-[…] data, mean, read-out: Half-lives averaging (converted)): 18 h | half-life (both, iv, […]2, Cohort 6, […]^2 IV, 0-[…] data, range over subjects, read-out: Half-lives range): 16.9 to 20.1 h | Tmax (both, iv, […]2, Cohort 6, […]^2 IV, median, read-out: median Tmax): 0.5 h
